Consider two molecules from patent US12343319B2, “Compositions and methods for treatment of diseases and disorders” (Atai Therapeutics Inc., priority 2023, dated 2025).

The test system of assay [1] is 5-HT2A. Briefly: IPOne, 5-HT2A. The class given is cell-based, human. The following applies: IPOne, human; calculated using ΔΔlog(Emax/EC50), reference = 1. The protocol: (§1) In vitro pharmacology studies were performed to evaluate the effects of compound 2-1 on functional activity of several 5-HT receptors using recombinant target overexpression cell culture systems. The effect of compound 2-1 on G protein-dependent signaling was investigated at 5-HT2A, 5-HT2B, and 5-HT2C receptors with calcium mobilization and IPOne assays; and at 5-HT1A, 5-HT1B, 5-HT1F, 5-HT5A, and 5-HT7D receptors with a cAMP assay. G protein-independent signaling was investigated at the 5-HT2A receptor with a β-Arrestin assay.
(§2) In vitro pharmacology studies were performed to evaluate the effects of compound 2-2 on functional activity at several 5-HT receptors using recombinant target overexpression cell culture systems. The effect of compound 2-2 on G protein-dependent signaling was investigated at 5-HT2A, 5-HT2B, and 5-HT2C receptors with calcium mobilization and IPOne assays; and at 5-HT1A, 5-HT1B, 5-HT1F, 5-HT5A, and 5-HT7D receptors with a cAMP assay. G protein-independent signaling was investigated at the 5-HT2A receptor with a β-arrestin assay. […] In Table 4, 5-HT receptor selectivity was calculated using ΔΔlog(Emax/EC50). Assay reference α-Me-5-HT or 5-HT was used for normalization at each receptor (5-HT2A/5-HT2B selectivity=1; 5-HT2A/5-HT2C selectivity=1). ND in Table 4 indicates, not determined, plateau was not reached within the concentration range tested to determine Emax.

In assay [2] the target is T1, 5-HT2A (Homo sapiens, UniProt P28223). Briefly: Radioligand binding, 5-HT2A. Set-up: expressed in transfected cells. The following applies: for Max % inhibition: radioligand binding, human 5-HT2A.
In assay [3] the target is T1, 5-HT2A. Briefly: Ca++ (calcium mobilization), 5-HT2A. The class given is cell-based. Particulars: for Emax: read-out: Emax (%5-HT). Set-up: expressed in transfected cells. The protocol: as §1, §2
Another assay concerns the target 5-HT2A receptor (Mus musculus, UniProt P35363). Briefly: Mouse head twitch response (HTR). The assay is classed as in vivo. Set-up: endogenous in cells; host or cells: adult male C57BL/6J mice, in vivo. The following applies: for ED50: mouse. The method, then:
The head twitch response (HTR) assay in rodents is commonly used as a behavioral proxy for 5-HT2A receptor activation. For classical serotonergic psychedelics, mouse HTR potency correlates with potency of subjective effects in humans. The ability of compound 2-1 to induce HTR in mice was assessed using a validated and automated detection system. Briefly, adult male C57BL/6J mice surgically prepared with a small neodymium magnet (4.57 mm×4.57 mm×2.03 mm) attached to the cranium were injected intraperitoneally (i.p.) with single doses of compound 2-1 (0.3, 1, 3, 10, 30 mg/kg, based on weight of the free base) or 40% (w/v) 2-HPBCD (hydroxypropyl-beta-cyclodextrin) vehicle (n=5-6 mice per treatment). In a 5-HT2A receptor antagonism study, M100907, a 5-HT receptor antagonist (0.001, 0.01, 0.1 mg/kg, i.p.) was administered 20 minutes prior to compound 2-1. Immediately after compound 2-1 injection, the mouse was placed individually in a glass cylinder surrounded by a magnetometer coil. HTR were recorded for 30 minutes and analyzed using a validated technique based on artificial intelligence. […] In FIG. 1A, FIG. 1B, and FIG. 1C, HTR data were analyzed using a 1-way Analysis of Variance (ANOVA) followed by Dunnett's test **p<0.01, ***p<0.001, ****p<0.0001 vs. vehicle).
The HTR assay in rodents is commonly used as a behavioral proxy for 5-HT2A receptor activation. For classical serotonergic psychedelics, mouse HTR potency correlates with potency of subjective effects in humans. The ability of compound 2-2 to induce HTR in mice was assessed using a validated and automated detection system. Briefly, adult male C57BL/6J mice surgically prepared with a small neodymium magnet (4.57 mm×4.57 mm×2.03 mm) attached to the cranium were injected intraperitoneally (i.p.) with single doses of compound 2-2 (0.3, 1, 3, 10, 30 mg/kg, based on weight of the free base) or 40% (w/v) 2-HPBCD vehicle (n=5-6 mice per treatment). In a 5-HT2A receptor antagonism study, M100907 (0.001, 0.01, 0.1 mg/kg, i.p.) was administered 20 minutes prior to compound 2-2. Immediately after compound 2-2 injection, the mouse was placed individually in a glass cylinder surrounded by a magnetometer coil. HTR were recorded for 30 minutes and analyzed using a validated technique based on artificial intelligence. […] HTR were analyzed using a 1-way Analysis of Variance (ANOVA) followed by Dunnett's test (*p<0.05, **p<0.01, ***p<0.001, ****p<0.0001 vs. vehicle).

Assay [4] deals with T1, 5-HT2A. In words: 5-HT2A receptor binding in human post-mortem frontal cortical tissue.
Setting [5] is: ip, C57BL/6J mice, 30 minutes, read-out: HTR 50% effective dose (ED50).

Like-named read-outs stand apart in the source and are kept apart here.

Usually IC50 stands for the midpoint of a concentration-inhibition curve. Usually EC50 stands for the concentration needed to bring the measured effect to its halfway point. As usually defined, the Emax is the maximal effect, on the per cent scale that the assay sets. By ED50 is commonly meant the dose that gives a 50% effect, or the effect in half of the subjects. For orientation: Ki means the dissociation constant of the complex between target and ligand, obtained from inhibition or displacement.

Sequence of 5-HT2A receptor (P35363 whole entry): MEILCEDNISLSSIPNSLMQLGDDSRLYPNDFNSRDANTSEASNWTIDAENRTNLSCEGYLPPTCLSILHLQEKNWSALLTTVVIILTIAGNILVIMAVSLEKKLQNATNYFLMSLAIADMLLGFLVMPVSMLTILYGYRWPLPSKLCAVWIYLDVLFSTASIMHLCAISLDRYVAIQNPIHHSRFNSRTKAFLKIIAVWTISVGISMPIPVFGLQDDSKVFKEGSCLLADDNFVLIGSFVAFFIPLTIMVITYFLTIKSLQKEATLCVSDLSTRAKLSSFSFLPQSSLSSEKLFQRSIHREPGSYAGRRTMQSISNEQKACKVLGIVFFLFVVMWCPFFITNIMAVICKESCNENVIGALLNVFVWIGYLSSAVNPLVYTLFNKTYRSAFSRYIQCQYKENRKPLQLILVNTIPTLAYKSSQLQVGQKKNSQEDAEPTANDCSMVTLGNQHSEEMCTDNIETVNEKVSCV
T1 sequence (P28223 whole entry): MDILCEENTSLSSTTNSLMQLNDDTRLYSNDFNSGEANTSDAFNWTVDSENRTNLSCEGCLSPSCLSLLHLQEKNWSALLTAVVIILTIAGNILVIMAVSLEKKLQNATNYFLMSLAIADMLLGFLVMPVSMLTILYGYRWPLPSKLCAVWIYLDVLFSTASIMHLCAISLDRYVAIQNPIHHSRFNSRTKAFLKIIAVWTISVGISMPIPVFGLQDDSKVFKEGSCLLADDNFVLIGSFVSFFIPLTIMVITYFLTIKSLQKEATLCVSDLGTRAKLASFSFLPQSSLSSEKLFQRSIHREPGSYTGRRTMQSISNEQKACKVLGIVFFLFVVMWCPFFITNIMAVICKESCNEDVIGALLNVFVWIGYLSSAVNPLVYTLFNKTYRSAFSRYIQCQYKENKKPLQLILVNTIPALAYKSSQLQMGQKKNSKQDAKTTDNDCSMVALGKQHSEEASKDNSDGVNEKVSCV

Regarding `COc1ccc(OC)c(CCNCc2cc(C)cc(Cl)c2)c1` [Compound 2-1, N-(3-chloro-5-methylbenzyl)-2-(2,5-dimethoxyphenyl)ethan-1-amine], the “5-HT2A/5-HT2B Selectivity” value in the assay on 5-HT2A [1] was 160. Also, on 5-HT2A [2], the IC50 was 0.0424 µM and the Max % inhibition is given as 96.93%. Moreover, on 5-HT2A [3], the EC50 amounted to 0.00424 µM and the Emax is 93.3%. For the same molecule, the “shape of HTR dose-response curve” value at 5-HT2A receptor (0.3-30 mg/kg i.p.) is reported as “inverted “U”-shaped”. Further, the “HTR compared to vehicle” value on 5-HT2A receptor (3 and 10 mg/kg, i.p.) was “significantly increased”. The “HTR after M100907 pretreatment” value on 5-HT2A receptor (M100907 0.001, 0.01, 0.1 mg/kg i.p. 20 minutes prior, compound i.p.) was “significant dose-dependent attenuation”. For the same molecule, the ED50 at 5-HT2A receptor (setting [5]) turned out to be 1.7 mg/kg. At 5-HT2A receptor (po, mice, read-out: HTR ED50), the ED50 was 15.7 mg/kg. On 5-HT2A receptor (oral, 30 mg/kg), the “HTR compared to vehicle” value is given as “increased HTR significantly”.

For `COc1ccc(OC)c(CCNCc2cc(C)cc(F)c2)c1` [Compound 2-2, 2-(2,5-dimethoxyphenyl)-N-(3-fluoro-5-methylbenzyl)ethan-1-amine], the “5-HT2A/5-HT2B Selectivity” value in the assay on 5-HT2A [1] is on record as 177. Further, on 5-HT2A [2], the IC50 turned out to be 0.105 µM and the Max % inhibition is 99%. At 5-HT2A [3], the EC50 amounted to 0.009 µM and the Emax was 88%. Besides, at 5-HT2A receptor (setting [5]), the ED50 came to 3.2 mg/kg. Further, the ED50 at 5-HT2A receptor (po, mice, read-out: HTR ED50) is 13.7 mg/kg. Further, at 5-HT2A [4], the IC50 is 0.069 µM and the Ki was found to be 0.0308 µM.
